ChEMBL document CHEMBL1201862, “PubChem BioAssay data set” (2004)
Several values for one entry are separate records, joined by “and”; a condition that tells them apart may be missing. Equal values may be shown once. Activity calls are given as the source filed them.

How the values were obtained:
Cytochrome P450 3A4 = Cytochrome P450 3A4 (Homo sapiens, UniProt P08684);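 also: CYP3A4 tested as one member of a cytochrome P450 panel screen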
Cytochrome P450 2C9 = Cytochrome P450 2C9 (Homo sapiens, UniProt P11712)
Cytochrome P450 2C9, sequence (P11712 whole entry): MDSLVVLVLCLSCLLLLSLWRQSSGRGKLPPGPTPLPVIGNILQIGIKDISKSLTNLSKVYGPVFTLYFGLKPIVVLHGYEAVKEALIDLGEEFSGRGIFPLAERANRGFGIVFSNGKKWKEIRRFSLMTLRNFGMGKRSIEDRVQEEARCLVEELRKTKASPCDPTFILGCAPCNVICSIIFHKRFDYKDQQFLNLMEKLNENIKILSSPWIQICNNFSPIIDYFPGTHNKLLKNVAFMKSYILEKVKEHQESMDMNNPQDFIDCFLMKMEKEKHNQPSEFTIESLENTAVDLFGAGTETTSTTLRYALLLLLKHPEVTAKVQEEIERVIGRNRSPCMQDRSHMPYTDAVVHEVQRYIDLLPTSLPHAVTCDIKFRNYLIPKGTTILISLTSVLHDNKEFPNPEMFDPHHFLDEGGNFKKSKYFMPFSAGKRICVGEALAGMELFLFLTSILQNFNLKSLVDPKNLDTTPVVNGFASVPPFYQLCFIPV

Cytochrome P450 1A2 = target: T1, Cytochrome P450 1A2 (Homo sapiens, UniProt P05177);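 also: PubChem cytochrome P450 panel assay, CYP1A2 panel member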
T1 sequence (P05177 whole entry): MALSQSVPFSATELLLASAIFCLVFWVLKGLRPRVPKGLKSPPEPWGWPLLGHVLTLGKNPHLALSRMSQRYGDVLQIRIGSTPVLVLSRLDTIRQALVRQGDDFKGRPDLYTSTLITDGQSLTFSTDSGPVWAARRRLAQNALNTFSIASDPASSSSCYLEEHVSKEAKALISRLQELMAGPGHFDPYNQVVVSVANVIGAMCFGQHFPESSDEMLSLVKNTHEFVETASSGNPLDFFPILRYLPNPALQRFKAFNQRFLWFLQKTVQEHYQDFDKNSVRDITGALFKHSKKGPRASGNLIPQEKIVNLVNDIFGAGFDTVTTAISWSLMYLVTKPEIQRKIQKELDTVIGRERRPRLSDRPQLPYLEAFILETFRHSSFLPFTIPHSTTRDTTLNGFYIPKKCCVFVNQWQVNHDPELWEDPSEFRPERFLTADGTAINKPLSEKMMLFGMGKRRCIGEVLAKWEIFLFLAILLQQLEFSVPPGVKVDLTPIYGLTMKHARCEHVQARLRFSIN

[1] = target: T2, Rac GTPase-activating protein 1 (Homo sapiens, UniProt Q9H0H5); test: blockers of MgcRacGAP-driven Rac1 GTP hydrolysis – biochemical, ADP Hunter fluorescence, primary and confirmatory, confirmation (AID 624330); assay type: functional
T2 sequence (Q9H0H5 whole entry): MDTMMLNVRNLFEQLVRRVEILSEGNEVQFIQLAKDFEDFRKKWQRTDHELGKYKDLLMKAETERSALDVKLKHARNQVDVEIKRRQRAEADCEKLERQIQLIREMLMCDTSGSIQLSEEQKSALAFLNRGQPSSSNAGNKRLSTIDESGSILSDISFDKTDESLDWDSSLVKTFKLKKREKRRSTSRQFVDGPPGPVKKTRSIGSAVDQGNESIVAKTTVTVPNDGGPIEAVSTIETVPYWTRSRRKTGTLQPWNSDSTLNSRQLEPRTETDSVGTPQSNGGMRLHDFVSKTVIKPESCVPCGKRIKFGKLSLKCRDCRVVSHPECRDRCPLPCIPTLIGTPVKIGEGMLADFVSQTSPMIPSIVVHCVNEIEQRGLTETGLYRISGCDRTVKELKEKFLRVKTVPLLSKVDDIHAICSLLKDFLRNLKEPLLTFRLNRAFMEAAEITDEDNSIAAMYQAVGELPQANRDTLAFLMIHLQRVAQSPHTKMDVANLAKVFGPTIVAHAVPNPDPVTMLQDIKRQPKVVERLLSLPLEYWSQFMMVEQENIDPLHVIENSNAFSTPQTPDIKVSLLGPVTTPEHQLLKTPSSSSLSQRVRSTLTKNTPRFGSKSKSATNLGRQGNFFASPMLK

[2] = viability of uninfected HEp-2 cells – cell-based, HTS, cytotoxicity control for RSV inhibitor project, dose response (AID 2410); assay type: functional; details: human respiratory syncytial virus
Cytochrome P450 2C19 = Cytochrome P450 2C19 (Homo sapiens, UniProt P33261); test: Cytochrome panel assay with activity outcomes. Panel member name: p450-cyp2c19 Compounds with AC50 equal or less than 10 uM are considered active; assay type: functional
Cytochrome P450 2C19, sequence (P33261 whole entry): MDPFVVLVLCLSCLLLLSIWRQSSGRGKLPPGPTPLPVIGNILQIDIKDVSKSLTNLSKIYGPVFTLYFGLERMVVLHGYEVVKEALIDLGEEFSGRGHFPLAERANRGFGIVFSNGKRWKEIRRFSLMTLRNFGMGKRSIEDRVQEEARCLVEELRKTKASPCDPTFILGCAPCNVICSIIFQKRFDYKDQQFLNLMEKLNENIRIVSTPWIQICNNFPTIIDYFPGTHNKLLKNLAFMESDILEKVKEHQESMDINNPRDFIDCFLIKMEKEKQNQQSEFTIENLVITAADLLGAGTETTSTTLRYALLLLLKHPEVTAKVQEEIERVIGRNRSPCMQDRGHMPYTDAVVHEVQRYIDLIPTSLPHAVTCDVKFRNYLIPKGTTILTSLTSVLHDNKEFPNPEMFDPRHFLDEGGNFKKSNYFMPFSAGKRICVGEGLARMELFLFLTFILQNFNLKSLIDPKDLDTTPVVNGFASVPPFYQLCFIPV

Cytochrome P450 3A4, sequence (P08684 whole entry): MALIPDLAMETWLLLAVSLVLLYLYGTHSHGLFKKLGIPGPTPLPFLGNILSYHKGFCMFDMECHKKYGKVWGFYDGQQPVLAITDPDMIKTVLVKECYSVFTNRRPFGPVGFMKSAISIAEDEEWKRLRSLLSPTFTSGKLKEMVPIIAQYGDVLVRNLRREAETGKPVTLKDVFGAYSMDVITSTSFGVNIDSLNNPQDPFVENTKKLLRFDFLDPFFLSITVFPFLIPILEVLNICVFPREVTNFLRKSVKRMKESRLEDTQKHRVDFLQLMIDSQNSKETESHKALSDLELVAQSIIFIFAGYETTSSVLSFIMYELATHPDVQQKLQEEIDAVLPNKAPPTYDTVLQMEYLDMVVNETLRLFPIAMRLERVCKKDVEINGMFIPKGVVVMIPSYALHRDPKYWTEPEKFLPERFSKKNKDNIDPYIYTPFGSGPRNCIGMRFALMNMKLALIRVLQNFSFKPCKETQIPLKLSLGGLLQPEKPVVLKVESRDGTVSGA

**Q.** With `O=C(Nc1ccc(F)cc1F)c1cccn1-c1ncc(C(F)(F)F)cc1Cl` as the molecule, how does the AC50 (Cytochrome P450 3A4) read?
**A.** Its AC50 is 28.2 µM (inconclusive).

**Q.** What about the AC50 (Cytochrome P450 2C9) of the same molecule?
**A.** The AC50 was 39.8 µM (inconclusive).

**Q.** And the AC50 (Cytochrome P450 1A2)?
**A.** The AC50 was 14.1 µM (inconclusive).

**Q.** Which IC50 [1] does the source give for `Cc1ccc(Nc2nnc(S)s2)cc1F` here?
**A.** Its IC50 is 54.5 µM (active).

**Q.** Which IC50 [1] does the source give for `O=C(c1cccc(Cl)c1)N1CCN(C2CCCCC2)CC1` here?
**A.** Its IC50 is 300 µM (active).

**Q.** With `CCOC(=O)CC(NC(=O)c1ccco1)c1ccc(OC)cc1` (configuration not stated) as the molecule, how does the AC50 (Cytochrome P450 2C9) read?
**A.** Its AC50 is 15.8 µM (inconclusive).

**Q.** What about the AC50 (Cytochrome P450 1A2) of the same molecule?
**A.** Its AC50 is 25.1 µM (inconclusive).

**Q.** With `CC(=O)c1cccc(Nc2nc(-c3ccccc3)cs2)c1` as the molecule, how does the CC50 [2] read?
**A.** Its CC50 is 21.2 µM (active).

**Q.** For `CCOc1ccc2c(c1)C(C)=CC(C)(C)N2` [E324], which AC50 (Cytochrome P450 3A4) is on record?
**A.** The AC50 was 12.6 µM (inconclusive).

**Q.** With `COc1cc2c(cc1OC)[C@@]13CCN4C=C5CCO[C@H]6CC(=O)N2[C@@H]1[C@@H]6[C@H]5C[C@H]43` as the molecule, how does the AC50 (Cytochrome P450 1A2) read?
**A.** Its AC50 is 5.01 µM (inconclusive).

**Q.** With `COc1cccc(Cn2c(=O)c(CCc3ccccc3)nc3cnc(OC)nc32)c1` as the molecule, how does the AC50 (Cytochrome P450 1A2) read?
**A.** Its AC50 is 12.6 µM (inconclusive).

**Q.** Which AC50 (Cytochrome P450 2C19) does the source give for `Cc1ccc(S(=O)(=O)N2CCC(C(=O)O)(c3ccccc3)CC2)cc1` here?
**A.** The AC50 was “inconclusive”.

**Q.** Which AC50 (Cytochrome P450 2C9) does the source give for `Cc1c(C(=O)O)oc2ccc(S(=O)(=O)NCc3ccc4c(c3)OCO4)cc12` here?
**A.** Its AC50 is 3.55 µM (inconclusive).

**Q.** And the AC50 (Cytochrome P450 1A2)?
**A.** Its AC50 is 14.1 µM (inconclusive).

**Q.** For `CN(Cc1ccccc1)Cn1ccnc1`, which AC50 (Cytochrome P450 3A4) is on record?
**A.** Its AC50 is 3.98 µM (inconclusive).

**Q.** For `Cc1ccccc1NC1=C(C(=O)c2ccccc2)N(C)S(=O)(=O)c2ccccc21`, which AC50 (Cytochrome P450 3A4) is on record?
**A.** The AC50 was 3.16 µM (inconclusive).

**Q.** Which IC50 [1] does the source give for `COc1ccccc1COCC(O)CNCC1(N2CCCCC2)CCCCC1` (configuration not stated) here?
**A.** Its IC50 is 121 µM (active).

**Q.** For `CC(C)(C)C(=O)NC(c1ccc(Cl)cc1)[C@]1(C)C[C@H]1C1CCCCC1` (some centres not stated), which AC50 (Cytochrome P450 2C19; read-out: AC50) is on record?
**A.** The AC50 was 7.94 µM (inconclusive).

**Q.** With `c1ccc(-c2nnc3n2NC(c2ccc4c(c2)OCO4)S3)cc1` (configuration not stated) as the molecule, how does the IC50 [1] read?
**A.** Its IC50 is 153 µM (active).

**Q.** For `O=C(CSCc1ccc(Cl)cc1)Nc1nccs1`, which AC50 (Cytochrome P450 3A4) is on record?
**A.** The AC50 was 3.55 µM (inconclusive).

**Q.** What about the AC50 (Cytochrome P450 2C9) of the same molecule?
**A.** Its AC50 is 14.1 µM (inconclusive).

**Q.** With `N#Cc1cccc(NC(=O)N2CCCC3(CCN(C(=O)c4ccco4)CC3)C2)c1` as the molecule, how does the AC50 (Cytochrome P450 1A2) read?
**A.** Its AC50 is 15.8 µM (inconclusive).

**Q.** Which AC50 (Cytochrome P450 2C19; read-out: AC50) does the source give for `O=S(=O)(c1cccc2cnccc12)N1CCNCC1` here?
**A.** Its AC50 is 10 µM (inconclusive).

**Q.** What about the AC50 (Cytochrome P450 1A2) of the same molecule?
**A.** The AC50 was 39.8 µM (inconclusive).

**Q.** Which results are given for `CCOC(=O)c1c(C)[nH]c(C(=O)OCC(=O)NC2CCS(=O)(=O)C2)c1C` (configuration not stated)?
**A.** AC50 (Cytochrome P450 2C9): 31.6 µM (inconclusive); AC50 (Cytochrome P450 2C19): inconclusive

**Q.** For `CCOc1cc(CNc2ccc(N3CCOCC3)cc2)cc(Br)c1OCC`, which IC50 [1] is on record?
**A.** Its IC50 is 19.6 µM (active).

**Q.** For `O=[N+]([O-])c1cccc(/C=N/Nc2cc(Cl)nc(-c3ccccc3)n2)c1`, which AC50 (Cytochrome P450 3A4) is on record?
**A.** The AC50 was 17.8 µM (inconclusive).

**Q.** For `C[C@@H](COc1ccccc1)N(CCCl)Cc1ccccc1`, which AC50 (Cytochrome P450 2C9) is on record?
**A.** Its AC50 is 31.6 µM (inconclusive) and 12.6 µM (inconclusive).

**Q.** And the AC50 (Cytochrome P450 1A2)?
**A.** The AC50 was 12.6 µM (inconclusive).

**Q.** With `CCOc1ccc(NC(=S)NC(=O)/C=C/c2ccc(OC)c(OC)c2)c([N+](=O)[O-])c1` as the molecule, how does the AC50 (Cytochrome P450 2C9) read?
**A.** Its AC50 is 14.1 µM (inconclusive).

**Q.** And the AC50 (Cytochrome P450 1A2)?
**A.** The AC50 was 15.8 µM (inconclusive).

**Q.** Which results are given for `O=C1CSc2ccc(C(=O)NCCC3=CCCCC3)cc2N1`?
**A.** AC50 (Cytochrome P450 3A4): 12.6 µM (inconclusive); AC50 (Cytochrome P450 2C19; read-out: AC50): 7.94 µM (inconclusive)

**Q.** For `O=C(O)c1c2c(nc3ccccc13)/C(=C/c1ccc(O)cc1)CCC2`, which IC50 [1] is on record?
**A.** Its IC50 is 46.6 µM (active).

**Q.** With `O=C(Nc1nc2ccccc2n1CCN1CCCCC1)C1CCCCC1` as the molecule, how does the AC50 (Cytochrome P450 3A4) read?
**A.** Its AC50 is 17.8 µM (inconclusive).

**Q.** What about the AC50 (Cytochrome P450 2C19; read-out: AC50) of the same molecule?
**A.** The AC50 was 28.2 µM (inconclusive).
